Results published in ChEMBL document CHEMBL1201862, “PubChem BioAssay data set” (2004).
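Values below derive from 48-hour exposures of cells grown in 96-well plates, with endpoints linearly interpolated between the two concentrations bracketing the appropriate inhibition level. GI50 is the concentration that inhibits growth by half.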 Active and inactive are the calls of the source. Rule as the data show it: active = GI50 up to about 1.1 µM and inactive = higher.

What was measured:
Assay in all cases: DTP human tumour cell line panel, 48 h
A498 = system: A498
ACHN = system: ACHN
CAKI-1 = system: CAKI-1
COLO 205 = system: COLO 205
DU-145 = system: DU-145
HCT-116 = system: HCT-116
HCT-15 = system: HCT-15
HOP-62 = system: HOP-62
Hs-578T = system: Hs-578T
IGROV-1 = system: IGROV-1
LOX IMVI = system: LOX IMVI
Malme-3M = system: Malme-3M
RPMI-8226 = system: RPMI-8226
SK-MEL-5 = system: SK-MEL-5
SN12C = system: SN12C
UACC-257 = system: UACC-257
SK-OV-3 = system: SK-OV-3
SR = system: SR
MDA-N = system: MDA-N

Row | SMILES | GI50 (A498) | GI50 (ACHN) | GI50 (CAKI-1) | GI50 (COLO 205) | GI50 (DU-145) | GI50 (HCT-116) | GI50 (HCT-15) [µM] | GI50 (HOP-62) | GI50 (Hs-578T) | GI50 (IGROV-1) | GI50 (LOX IMVI) | GI50 (Malme-3M) | GI50 (RPMI-8226) | GI50 (SK-MEL-5) | GI50 (SN12C) | GI50 (UACC-257) | GI50 (SK-OV-3) | GI50 (SR) | GI50 (MDA-N)
1 | O=C1CCc2c3c(c4c([nH]c5ccccc54)c2CC1)C(=O)NC3=O | 2.22 µM (inactive) | 1.01 µM (active) | 2.02 µM (inactive) | 0.63 µM (active) | 9.98 µM (inactive) | 2.05 µM (inactive) | 2.7 | 12.3 µM (inactive) | 2.08 µM (inactive) | 0.893 µM (active) | 1.18 µM (inactive) | 3.48 µM (inactive) | 3.38 µM (inactive) | 1.91 µM (inactive) | 4.32 µM (inactive) | 5.05 µM (inactive) | – | – | –
2 | FC(F)(F)c1ccccc1C1SCc2nc3ccccc3n21 (stereo not given) | 12.3 µM (inactive) | 40.6 µM (inactive) | 32.6 µM (inactive) | 59.8 µM (inactive) | – | 39.1 µM (inactive) | – | – | – | 60.1 µM (inactive) | – | 25.4 µM (inactive) | 23 µM (inactive) | > 10 µM (inactive) | 31.6 µM (inactive) | 26.1 µM (inactive) | 60.7 µM (inactive) | 27.9 µM (inactive) | –
3 | O=C(c1cccc2cc(O)ccc12)c1cn(CCN2CCOCC2)c2ccccc12 | – | 33.7 µM (inactive) | 39.4 µM (inactive) | 45.7 µM (inactive) | 30.1 µM (inactive) | 20 µM (inactive) | – | 22 µM (inactive) | – | 20.3 µM (inactive) | 20.6 µM (inactive) | 22.8 µM (inactive) | 47.1 µM (inactive) | 40 µM (inactive) | 31.8 µM (inactive) | 21.7 µM (inactive) | – | 50.2 µM (inactive) | 25.2 µM (inactive)
4 | CCOC(=O)c1ccc(/N=C/C=C(\Nc2ccc(C(=O)OCC)cc2)c2ccc3ccccc3c2)cc1 | 95.9 µM (inactive) | 30.5 µM (inactive) | 25 µM (inactive) | 16.2 µM (inactive) | 37.3 µM (inactive) | 31.4 µM (inactive) | 20.7 | 30.8 µM (inactive) | 31.1 µM (inactive) | 36.2 µM (inactive) | 15.7 µM (inactive) | 20.5 µM (inactive) | 18.7 µM (inactive) | 18.3 µM (inactive) | 26.7 µM (inactive) | 31 µM (inactive) | 30.2 µM (inactive) | 20.3 µM (inactive) | –
5 | COc1ccc(CNc2nc(NCc3ccc(OC)cc3)nc(N3CCOCC3)n2)cc1 | 11 µM (inactive) | 5.62 µM (inactive) | 2.71 µM (inactive) | 3.91 µM (inactive) | 15.1 µM (inactive) | 4.49 µM (inactive) | 2.29 | 7.11 µM (inactive) | 4.23 µM (inactive) | 7.91 µM (inactive) | – | 1.03 µM (active) | 1.69 µM (inactive) | 5.41 µM (inactive) | 5.37 µM (inactive) | 5.22 µM (inactive) | 8.83 µM (inactive) | 2.79 µM (inactive) | –
6 | CCc1c(C)c(C#N)c(=S)n(C2OC(CO)C(O)C(O)C2O)c1C (stereo not given) | > 100 µM (inactive) | > 100 µM (inactive) | – | > 100 µM (inactive) | > 100 µM (inactive) | > 100 µM (inactive) | > 100 | > 100 µM (inactive) | – | > 100 µM (inactive) | > 100 µM (inactive) | > 100 µM (inactive) | – | > 100 µM (inactive) | > 100 µM (inactive) | > 100 µM (inactive) | > 100 µM (inactive) | > 100 µM (inactive) | > 100 µM (inactive)
7 | CCOC(=O)C1C(=O)CC(C)(O)C(C(=O)OCC)C1c1ccc(O)c(OC)c1 (stereo not given) | > 100 µM (inactive) | > 100 µM (inactive) | > 100 µM (inactive) | > 100 µM (inactive) | > 100 µM (inactive) | > 100 µM (inactive) | > 100 | > 100 µM (inactive) | – | > 100 µM (inactive) | > 100 µM (inactive) | > 100 µM (inactive) | – | > 100 µM (inactive) | > 100 µM (inactive) | > 100 µM (inactive) | – | > 100 µM (inactive) | > 100 µM (inactive)
8 | N=CCCN(CCC=N)c1ccc(/C=C2\CN(NC(=O)c3ccc(Cl)cc3)C(c3ccccc3)=N2)cc1 | > 100 µM (inactive) | > 100 µM (inactive) | > 100 µM (inactive) | > 100 µM (inactive) | – | > 100 µM (inactive) | > 100 | > 100 µM (inactive) | – | > 100 µM (inactive) | 75 µM (inactive) | > 100 µM (inactive) | 26.4 µM (inactive) | > 100 µM (inactive) | > 100 µM (inactive) | > 100 µM (inactive) | > 100 µM (inactive) | – | –
9 | COc1ccc(CC#N)c(OCc2ccccc2)c1 | 11.2 µM (inactive) | 27 µM (inactive) | > 100 µM (inactive) | 40.4 µM (inactive) | – | 33.2 µM (inactive) | – | > 100 µM (inactive) | – | 29.4 µM (inactive) | 43.8 µM (inactive) | 22 µM (inactive) | 43.3 µM (inactive) | 19.7 µM (inactive) | 51.5 µM (inactive) | 39.3 µM (inactive) | – | 33.4 µM (inactive) | –
10 | COC(=O)C1=C(O)c2cc(OC)c(OC)c(OC)c2C(c2ccc3c(c2)OCO3)[C@@H]1C(=O)OC (stereo not given in full) | 3.82 µM (inactive) | 4.74 µM (inactive) | 0.935 µM (active) | 2.24 µM (inactive) | – | 4.36 µM (inactive) | 7.1 | 5.53 µM (inactive) | – | 5.56 µM (inactive) | 4.43 µM (inactive) | 3.44 µM (inactive) | 6.62 µM (inactive) | – | 3.68 µM (inactive) | 5.81 µM (inactive) | 3.44 µM (inactive) | 3.66 µM (inactive) | –
11 | CN(C)c1ccc(/C=N\NC(=O)CSCC(=O)N/N=C/c2ccc(N(C)C)cc2)cc1 | – | 43.4 µM (inactive) | 64.1 µM (inactive) | 48 µM (inactive) | 51.5 µM (inactive) | 46.9 µM (inactive) | 16.4 | 62.8 µM (inactive) | 20.6 µM (inactive) | 19.4 µM (inactive) | 33.2 µM (inactive) | > 100 µM (inactive) | 33.3 µM (inactive) | 30 µM (inactive) | 31.2 µM (inactive) | > 100 µM (inactive) | > 100 µM (inactive) | 73.8 µM (inactive) | –
12 | O=c1c2ccccc2oc2ccccc12.Oc1cccc2cccnc12 | 16.8 µM (inactive) | 3.12 µM (inactive) | 3.9 µM (inactive) | 3.05 µM (inactive) | – | 2.56 µM (inactive) | – | 7.43 µM (inactive) | – | 3.73 µM (inactive) | 1.49 µM (inactive) | 1.75 µM (inactive) | 5.41 µM (inactive) | 1.95 µM (inactive) | 2.22 µM (inactive) | 2.73 µM (inactive) | < 0.01 µM (active) | 2.73 µM (inactive) | –
13 | Cc1c(CN)c(C)c(CN)c(C)c1CN | – | > 100 µM (inactive) | > 100 µM (inactive) | > 100 µM (inactive) | > 100 µM (inactive) | > 100 µM (inactive) | > 100 | 81.5 µM (inactive) | – | > 100 µM (inactive) | > 100 µM (inactive) | > 100 µM (inactive) | > 100 µM (inactive) | > 100 µM (inactive) | > 100 µM (inactive) | > 100 µM (inactive) | – | > 100 µM (inactive) | –
14 | CCCCOC(=O)NC(=O)c1cn(CCSCCOC(=O)NCCCCCCNC(=O)OCCSCCn2cc(C(=O)NC(=O)OCCCC)c(=O)[nH]c2=O)c(=O)[nH]c1=O | 29.4 µM (inactive) | > 100 µM (inactive) | – | > 100 µM (inactive) | – | 73.8 µM (inactive) | > 100 | 44.6 µM (inactive) | – | 37.7 µM (inactive) | > 100 µM (inactive) | 29.7 µM (inactive) | > 100 µM (inactive) | > 100 µM (inactive) | > 100 µM (inactive) | > 100 µM (inactive) | 30.1 µM (inactive) | 54.6 µM (inactive) | –
15 | O=C(O)CN(c1ccccc1)S(=O)(=O)c1ccc(Cl)cc1 | > 100 µM (inactive) | > 100 µM (inactive) | > 100 µM (inactive) | > 100 µM (inactive) | – | – | > 100 | – | – | > 100 µM (inactive) | > 100 µM (inactive) | > 100 µM (inactive) | > 100 µM (inactive) | – | > 100 µM (inactive) | > 100 µM (inactive) | > 100 µM (inactive) | – | –
16 | N#CC(C#N)/N=N/c1ccc(-c2nc3ccccc3s2)cc1 | 11.1 µM (inactive) | 3.68 µM (inactive) | 2.81 µM (inactive) | 4.04 µM (inactive) | 5.79 µM (inactive) | 3.78 µM (inactive) | 3.59 | – | – | 6 µM (inactive) | 7 µM (inactive) | 3.15 µM (inactive) | 1.51 µM (inactive) | 2.74 µM (inactive) | 2.78 µM (inactive) | 3.1 µM (inactive) | – | 3.23 µM (inactive) | 4.93 µM (inactive)
17 | O=C(NCCN1CCOCC1)c1ccc(I)cc1 | > 100 µM (inactive) | > 100 µM (inactive) | > 100 µM (inactive) | – | – | – | > 100 | – | > 100 µM (inactive) | > 100 µM (inactive) | > 100 µM (inactive) | – | > 100 µM (inactive) | > 100 µM (inactive) | > 100 µM (inactive) | – | > 100 µM (inactive) | > 100 µM (inactive) | –
18 | NCCN1CC2CCC(CC2)C1 | > 10 µM (inactive) | > 10 µM (inactive) | > 10 µM (inactive) | > 10 µM (inactive) | > 10 µM (inactive) | > 10 µM (inactive) | > 10 | > 10 µM (inactive) | > 10 µM (inactive) | > 10 µM (inactive) | > 10 µM (inactive) | > 10 µM (inactive) | > 10 µM (inactive) | > 10 µM (inactive) | > 10 µM (inactive) | > 10 µM (inactive) | > 10 µM (inactive) | > 10 µM (inactive) | –
